Usually IC50 stands for the concentration needed to halve the response being measured.

SMILES strings stand for the structures.

We go through two compounds from paper PMC12074917, “Molecular pharmacokinetic mechanism of JBP485 against aristolochic acid I (AAI) -induced nephrotoxicity” (Frontiers in Pharmacology, 2025).

Data set [1] has as its system AAI-induced nephrotoxicity in rats. Nature of the data set: Toxicity study in rats (AAI-induced nephrotoxicity, AAN): histology, biochemical indicators, oxidative stress markers, Western blotting of kidney. The data set is classed as in vivo, rat. As for the experimental part: For the assessment of toxicity, AAI was suspended in olive oil and JBP485 was dissolved in saline. Rats were randomly divided into the following four groups (n = 5 per group): A control group, which was administered saline intraperitoneally (i.p.) and olive oil orally (p.o.); a JBP485-only group, administered JBP485 i. p. at the dose of 50 mg/kg and olive oil p. o.; an AAI-only group, in which the rats were administered AAI p. o. at the dose of 20 mg/kg and saline i. p.; and a JBP485 + AAI group, where the animals were given AAI p. o. at the dose of 20 mg/kg and JBP485 i. p. at the dose of 50 mg/kg. JBP485 was intraperitoneally administered 2 days before AAI treatment. On day 3 and 30 min after AAI administration, rats were given saline i. p. or JBP485 (50 mg/kg) once daily for 7 days. On day 10, the rats were euthanized and blood, urine, and kidneys were collected for subsequent assays.
Indoxyl sulfate levels in plasma and urine of rats were determined by liquid chromatography-tandem mass spectrometry (LC–MS/MS) (API 3200; Applied Biosystems, Foster City, CA, United States) according to our previous study ([Guo et al., 2013]).
The levels of BUN and CRE in rat plasma were detected following the instructions of the Nanjing Jiancheng Institute of Biotechnology (Nanjing, China). Samples and reagents were added according to the instructions of the kit and reactions were carried out under the specified conditions. Absorbance was measured at 520 nm and 546 nm, respectively, and the quantities were calculated based on the corresponding formula.
For the extraction of total protein, 100 mg of fresh kidney tissue was placed in 1 mL of RIPA buffer containing protease inhibitor, phosphatase inhibitor, and PMSF, cut into small pieces with ophthalmic scissors, homogenized, and placed at 4°C to fully lyse for 20 min, with vortexing every 5 min. Following centrifugation at 12,000 rpm for 20 min at 4°C, the protein concentration in the supernatant was determined using a BCA protein quantification kit. The protein concentrations of all the samples were then adjusted to the lowest protein concentration measured. Subsequently, an appropriate amount of 5× loading buffer was added according to the volume, and the samples were placed in boiling water for 10 min. Equal amounts of protein (40 μg) were separated by SDS–PAGE at constant current (120 mA), transferred to a PVDF membrane by wet transfer, blocked in 5% non-fat dry milk for 2 h, and incubated overnight with primary antibodies. The next day, the samples were incubated with the corresponding secondary antibodies (goat anti-rabbit IgG [H&L], 1:2000, or goat anti-mouse IgG [H&L], 1:2000) for 2 h at room temperature. The protein bands were developed using enhanced chemiluminescence (ECL, YH0009-1, Nanjing Crane Biopharmaceuticals, Nanjing, China) and Tanon-5200 system (Shanghai Tianneng Technology Company, Shanghai, China) while ImageJ 6.0 software was used for analysis.
Background: A western blot detects proteins with antibodies after separation by electrophoresis.

The next data set relates to rat kidney slices. The data set can be described thus: In vitro uptake of AAI in kidney slices. In kind it is in vitro ADME. Conditions: AAI 1 μM, JBP485 500 μM. As to the method: Rat kidneys were cut into slices with a ZQP-86 tissue slicer (Zhixin Co. Ltd., China), as previously described ([Wang et al., 2014]). After preincubation for 3 min at 37°C, the kidney slices were transferred to 24-well culture plates containing 1 mL of fresh oxygenated buffer with AAI (1 μM) and/or JBP485 (500 μM) and further incubated at 37 °C with gentle shaking. After incubation for 5, 15, and 30 min, the slices were washed with ice-cold Hanks’ balanced salt solution (pH 7.5). The amount of AAI accumulated in the homogenized kidneys was determined by LC–MS/MS.
The concentrations of the test compounds in plasma, urine, and cell lysates were determined using an Agilent HP1200 liquid chromatography system (Agilent Technology Inc., SC, CA, United States) and an API 3200 triple-quadrupole mass spectrometer (Applied Biosystems, SC, CA, United States). After protein precipitation using acetonitrile, the analyte was separated on a Hypersil BDS C18 column. The mobile phase consisted of acetonitrile and water containing 0.1% (v/v) formic acid (80:20, v/v). The flow rate was 0.4 mL/min. The mass spectrometer was equipped with an electrospray ionization (ESI) source. Data were acquired in positive ion mode and dynamic multiple reaction monitoring (MRM) mode. […]

Data set [2] deals with NRK-52E cells. Nature of the data set: Intracellular ROS level by DCFH-DA flow cytometry. In kind it is cell-based, rat. As for the experimental part: NRK-52E cells were plated in 6-well culture plates at a density of 5 ×10^4 cells/mL and treated with various concentrations of JBP485 (62.5, 125 and 250 μM) for 2.5 h. After challenge with AAI (11 μM) for 24 h, the cells were harvested and resuspended in 500 μL of DCFH-DA (10 μM) for the detection of ROS by flow cytometry (Becton Dickinson, United States) (Aagaard et al., 2014).

Data set [3] has as its system NRK-52E cells. Nature of the data set: CCK-8 cell viability assay. In kind it is cell-based, rat. As to the method: AAI was prepared to make a series of working dilutions in serum-free DMEM. The NRK-52E cells were plated in 96-well plates at a density of 5 ×10^4 cells/mL for 24 h at 37 °C and then challenged with various concentrations of AAI (0, 1, 2, 4, 8, 16, 32, 64, 128 and 256 μM). Cell viability was assessed using the CCK-8 assay.
NRK-52E cells were seeded in 96-well plates at a density of 5 × 10^4 cells/mL and incubated for 24 h at 37 °C. Following pretreatment with various concentrations of JBP485 (7.8125, 15.625, 31.25, 62.5, 125, and 250 μM) for 2.5 h, the cells were challenged with AAI (11 μM) for 24 h. Cell viability was subsequently assayed using a CCK-8 kit.

The mark [4] stands for this setting: JBP485 50 mg/kg i.p. co-administered with AAI 20 mg/kg p.o.
Where [5] appears, read: JBP485 co-administered with AAI.
The mark [6] stands for this setting: JBP485 co-administered with AAI vs AAI alone.
The mark [7] stands for this setting: JBP485 treatment with AAI vs AAI alone.
The mark [8] stands for this setting: AAI group vs control, Western blot.

Turning to `O=C1N[C@@H](CO)C(=O)N2C[C@H](O)C[C@@H]12` (relative stereo) [JBP485, cyclo-trans-4-L-hydroxyprolyl-L-serine], in data set [1] (setting [4]), the AAI-induced weight loss entry is “significantly prevented” and the renal morphology result was “markedly improved”. Also, the “expression levels of Bcl-2 and Bax in the kidney” value in data set [1] (JBP485-only treatment group) was “no change”. In addition, the “body weight or renal morphology” value in data set [1] (JBP485 alone 50 mg/kg i.p.) is reported as “did not influence”. Also, in data set [1] (JBP485 alone vs control), the “kidney histology (H&E)” value is “no significant difference”. Also, in data set [1] (setting [5]), the “AAI effect on Bax expression in the kidney” value was “notably reversed”, the “AAI effect on Bcl-2 expression in the kidney” value is “notably reversed” and the “AAI-induced histopathological effects in the kidney (H&E)” value is “significantly mitigated”. Further, in data set [1] (setting [6]), the “kidney weight-to-body weight ratio” value was “reduced”, the “plasma level of BUN” value is “opposite trend”, the “plasma level of CRE” value is recorded as “opposite trend” and the “plasma level of indoxyl sulfate” value was “opposite trend”. Further, in data set [1] (setting [6]), the “urine level of indoxyl sulfate” value is on record as “opposite trend”. Moreover, the “protein expressions of Oat1, Oat3, Oct2, P-gp, Mrp2 and Mate1 in the kidney” value in data set [1] (JBP485 co-administered with AAI vs AAI alone, Western blot) is “significantly increased”. Moreover, in data set [1] (setting [7]), the “AAI effect on HO-1 protein level in the kidney” value is “reversed”, the “AAI effect on MDA levels in the kidney” value is on record as “reversed”, the “AAI effect on NQO1 protein level in the kidney” value was “reversed” and the “AAI effect on SOD level in the kidney” value is listed as “reversed”. Moreover, the “AAI uptake in kidney slices” value in the data set with rat kidney slices is “inhibited”. For the same compound, the “ROS production in NRK-52E cells” value with NRK-52E cells [2] (JBP485 alone vs control) is on record as “did not alter”. In the data set with NRK-52E cells [2] (JBP485 co-administered with AAI 11 μM), the “AAI-induced rise in ROS production in NRK-52E cells” value is recorded as “significantly attenuated”. In addition, the “survival rates of NRK-52E cells challenged with AAI” value in the data set with NRK-52E cells [3] (JBP485 7.8125-250 μM pretreatment 2.5 h, AAI 11 μM 24 h) is listed as “dose-dependently increased”. Besides, the “toxicity against NRK-52E cells” value in the data set with NRK-52E cells [3] (JBP485 alone, concentrations up to 256 μM) is “no JBP485-related toxicity”.

For `COc1cccc2c1cc([N+](=O)[O-])c1c(C(=O)O)cc3c(c12)OCO3` [AAI, Aristolochic Acid I], the “kidney histology (H&E)” value in data set [1] (AAI 20 mg/kg p.o.) is listed as “showed damage”. Moreover, in data set [1] (AAI 20 mg/kg p.o. vs control), the body weight entry is given as “significantly decreased” and the “kidney weight-to-body weight ratio” value was “increase”. In data set [1] (AAI group vs control), the “MDA levels in the kidney” value is “markedly increased”, the “SOD level in the kidney” value is given as “significantly decreased”, the “plasma level of BUN” value was “significantly higher” and the “plasma level of CRE” value is “significantly higher”. In data set [1] (AAI group vs control), the “plasma level of indoxyl sulfate” value is “significantly higher” and the “urine level of indoxyl sulfate” value is “lower”. In data set [1] (setting [8]), the “Bax expression in the kidney” value is given as “increased”, the “Bcl-2 expression in the kidney” value is “decreased”, the “HO-1 protein level in the kidney” value is “significantly decreased” and the “NQO1 protein level in the kidney” value is recorded as “significantly decreased”. In addition, in data set [1] (AAI-treated rats, Western blot), the “renal transporter expression (Oat1, Oat3, Oct2, P-gp, Mrp2, Mate1)” value is recorded as “downregulation”. In the data set on NRK-52E cells [2] (AAI alone 11 μM 24 h vs control), the “ROS generation in NRK-52E cells” value is recorded as “significant increase”. Besides, in the data set with NRK-52E cells [3] (CCK-8), the “concentration at which proliferation of NRK-52E cells is significantly inhibited (as low as)” value is 2000 nM. Besides, the half-maximal inhibitory concentration (IC50) in the data set on NRK-52E cells [3] (CCK-8, read-out: IC50 for NRK-52E cells (cytotoxicity)) is 11 µM.
